Laboratory results from patent US5574059A, “Treating disorders mediated by vascular smooth muscle cell proliferation” (priority 1995, dated 1996).
Where two headings read alike, the source gives them in different places.

Tests used:
[1] = tested on: I2 imidazoline receptors; test: inhibition of 3H-idazoxan (5 nM) binding to rat aortic smooth muscle cell membranes; conditions: Table 2; 3H-idazoxan 5 nM; rat aortic smooth muscle cell membranes; read-out: Ki
Protocol: Binding to I2 imidazoline receptors is determined by the following assay. Membranes are prepared from cultured cells for ligand binding as described in Regunathan, S., et al, Biochem. Pharmacol. 45, 1667-1675 (1993) and Regunathan, S., et al, J. Neurosci. Res. 34, 681-688 (1993) and the disclosure in these on this is incorporated herein by reference. In particular, harvested rat aortic smooth muscle cells are homogenized in Hepes-sucrose buffer (pH 7.4) with a Teflon-glass homogenizer and centrifuged at 1000 × g for 10 minutes. The pellets are suspended in ice-cold Tris-HCl buffer (pH 7.7) with 5mM ethylene diamine tetracetic acid and homogenized using a Polytron (Brinkman Instruments) for 10 seconds. The homogenate is centrifuged at 40,000 × g for 30 minutes to produce a membrane pellet. The membrane pellet is washed three times by resuspending in buffer and re-centrifuging. The washed pellet is suspended in fresh Tris-HCl buffer (pH 7.4) to provide approximately 100 μg protein per assay tube. Binding assays are performed in Tris-HCl buffer (pH 7.7) using 5 nM of […]. Non-specific binding is defined by 100 μM of unlabelled idazoxan which will inhibit the specific binding of ^3 H-idazoxan. Thus the binding remaining in the presence 100 μM of idazoxan is due to non-specific binding and this will be substracted from total binding to calculate the specific binding. Following incubation at 25° C. for 30 minutes, reaction is terminated by rapid vacuum filtration over Whatman GF/B filters and washed with 10 ml of ice-cold buffer. Filters are suspended in scintillation fluid and radioactivity counted in a liquid scintillation counter. Membrane protein is assayed by Coomassie Blue method (Pierce) using bovine serum albumin as standard.
Determination of inhibition constant (Ki) for each drug is determined as follows: The binding of ^3 H-idazoxan to membranes of vascular smooth muscle cells is determined in the presence of 0.1 nM to 100 μM concentrations of potential drug. The percent inhibition of specific binding of ^3 H-idazoxan by each concentration is calculated and plotted against concentration. The data is analyzed by non-linear curve fitting program, LIGAND and the IC50 value for each potential drug is calculated. The affinity for each drug (Ki) for I2 imidazoline receptors is calculated using the formula Ki =IC50 /1+L/Kd where L is the concentration of ^3 H-idazoxan used for binding and Kd is the dissociation constant for ^3 H-idazoxan for I2 imidazoline receptors. The dissociation constant (Kd) is determined by Scatchard analysis of the saturation binding of ^3 H-idazoxan using the formula [formula] where B and F are the amount of bound and free ligand, respectively, and Bmax is the number of binding sites.
Primary cultures of rat-aortic smooth muscle cells were prepared by a modification (described in Erlinge, Do, et al, Am. J. Physiol. 265, H1089-1097, 1993) of the method of Meyer-Lehnert and Schrier (Meyer-Lehnert, H., et al, Hypertension 13,350-361, 1989), the disclosure of these cited articles being incorporated herein by reference. Briefly, rats were killed by anesthetic overdose and the aorta were removed and incubated with collagenase (2 mg/ml) in Dulbecco's modified Eagle's minimum essential medium (DMEM). The vessel was stripped of adventitia, cut longitudinally and the intima scraped away. After further collagenase treatment, the remaining tissue was passed 20 times through 18 and 16 gauge needles. The resulting cell suspension was centrifuged at 500 × g for 5 minutes and resuspended in DMEM containing penicillin (100 units/ml), streptomycin (100 μg/ml), 2 mM L-glutamine and 10% fetal calf serum. The suspended cells were plated in T-75 flasks, cultured until confluent, and subcultured in 100 mm plates. The confluent cells were harvested and membranes were prepared. Cell viability was determined by trypan blue exclusion.

[2] = tested on: rat aortic smooth muscle cells; test: serum-stimulated proliferation, 3H-thymidine incorporation into DNA; type: cell-based; conditions: for IC50: Rattus norvegicus, read-out: 3H-thymidine incorporated (IC50)
Protocol: Inhibition of serum-stimulated proliferation of rat aortic smooth muscle cells is determined as follows: The antiproliferative effect of potential drug is determined by measuring the incorporation of ^3 H-thymidine into cellular DNA. Exposure of quiescent vascular smooth muscle cell to serum, which contains many growth factors, results in a large increase in cellular proliferation as measured by ^3 H-thymidine incorported into DNA. The inhibitory effect of potential drug on serum-stimulated proliferation is tested by adding a drug before the addition of serum and determining if the serum-stimulated proliferation is reduced. […] In that event, antagonizing of the antiproliferative effect of idazoxan is determined by adding antagonist before the addition of idazoxan to serum-stimulated vascular smooth muscle cells.
In this experiment, the proliferation of vascular smooth muscle cells was determined by measuring DNA replication. The incorporation of ^3 H-thymidine into DNA was used to measure the replication of DNA as described in Erlinge, D., et al, Am. J. Physiol. 265, H1089-H1097 (1993) which is incorporated herein by reference.
Rat aortic smooth muscle cells prepared as described in In Vitro Example 1 were plated into 24-well plates at a density of about 30,000 cells/well in 10% fetal calf serum (FCS). After 48 hours, the cells were starved in 0.5% FCS for another 48 hours to decrease proliferation and induce quiescence. The medium was replaced by serum-free medium 24 hours prior to addition of drug (drugs are described below) and 10% fetal calf serum or only 10% fetal calf serum in the case of the control. The cells were then incubated for 24 hours and ^3 H-thymidine (1 μCi/well) was added at hour 20. At the end of the 24 hour period, the medium was aspirated and the cells were washed three times with phosphate-buffered saline and twice with ice-cold trichloroacetic acid. Fixed cells were then solubilized in 0.2M NaOH and sonicated. A 100 μl aliquot was used for scintillation counting.

[3] = Example I: patient with intermittent claudication, iliac artery plaques; type: in vivo, human; conditions: over 30 days oral; idazoxan 50 and 75 mg/day, UK 14,304 125, naphazoline 125, cirazoline 75, agmatine 900 mg/day
Text: A person presents with progressive symptoms of intermittent claudication in both legs.

[4] = Example II: patient with narrowing of right common carotid artery, balloon angiography; type: in vivo, human; conditions: idazoxan 50 or 75 mg/day two weeks before and 3 months after balloon angiography; UK 14,304 125, cirazoline 60, naphazoline 125, agmatine 900 mg/day
Protocol: A person presents with a history of intermittent brief episodes of transient monocular blindness in the right eye associated with clumsiness and weakness of the left arm and leg. Angiography indicates substantial narrowing of the right common carotid artery. They are with treated with idazoxan at a dosage of 50 or 75 mg/day for two weeks preceding balloon angiography and for 3 months thereafter.

[5] = Example III: patient with coronary artery disease, angioplasty; type: in vivo, human; conditions: idazoxan 50 mg/day continued for 3 months; substitutes, dose not stated
Protocol: A person presents with the onset of chest pain on exertion. […] Ten days before angioplasty, the patient is begun on 75 or 100 mg/day of idazoxan. […] Treatment with 50 mg/day idazoxan is continued for 3 months.

[6] = Example IV: patient with fibromuscular dysplasia of the renal artery, angioplasty; type: in vivo, human; conditions: idazoxan 75 mg/day; UK 14,304 60, naphazoline 125, cirazoline 60, agmatine 900 mg/day
[7] = Example V: patient with Type I diabetes mellitus, overgrowth of retinal vessels; type: in vivo, human; conditions: idazoxan 75 mg/day; UK 14,304 60, naphazoline 125, cirazoline 60, agmatine 900 mg/day
Text: A person with Type I diabetes mellitus and maintained on insulin presents with progressive symptoms of loss of visual acuity bilaterally with evidence on opthalmascopic examination of overgrowth of retinal vessels and hemorrhages.

[8] = 10% fetal calf serum stimulated

| Compound | Ki [1] [µM] | inhibition of vascular smooth muscle cell proliferation, in words [2, 8] | IC50 ([2]; 10% fetal calf serum stimulated, 24 h) [µM] | symptoms of intermittent claudication [3] | symptoms and restenosis of the vessel [4] | symptoms / restenosis after angioplasty [5] | re-elevation of pressure / restenosis of the renal artery [6] | progression and visual symptoms [7] | IC50 [2] [µM] |
| --- | --- | --- | --- | --- | --- | --- | --- | --- | --- |
| Brc1c(NC2=NCCN2)ccc2nccnc12 [UK 14,304, 5-bromo-N-(4,5-dihydro-1-H-imidazol-2-yl)-6-quinoxalinamine] | 0.02 ± 0.0014 | potently inhibited | 15.6 ± 2.8 | stabilization of symptoms | comparable results | comparable results, i.e., no restenosis | comparable results, i.e., no restenosis | comparable results, i.e., no restenosis |  |
| NCCCCN=C(N)N [Agmatine, 4-(aminobutylguanidine)] | 0.24 ± 0.025 | weakly inhibited |  | stabilization of symptoms | comparable results | comparable results, i.e., no restenosis | comparable results, i.e., no restenosis | comparable results, i.e., no restenosis | 340 ± 29 |
